Results published in patent US6218367A, “Paclitaxel-carbohydrate conjugates: design, synthesis and biological evaluations” (Organomed Corporation, priority 1999, dated 2001).
Read-outs that look alike come from different tables or passages of the source.

Key:
SF-268 = assay: NCI in vitro human tumor cell line screen, CNS cancer; assay type: cell-based; conditions: for GI50: Homo sapiens
SNB-75 = assay: as above; assay type: cell-based; conditions: for GI50: Homo sapiens
Experimental: (§1) Compounds were tested as described (Monks, A. et al., (1991). J. Nat. Cancer Int., 83, 757-766; Boyd, M. R., and Paull, K. D., (1995) "Some practical considerations and applications of the National Cancer Institute In Vitro Anticancer Drug Discovery Program", Drug Development Res., 34, 91-109 in the NCI in vitro human tumor cell line screen). The compounds were examined in 60 different cell lines. The following definitions are based on the National Cancer Institute in vitro screen protocol (Boyd, M. R., and Paull, K. D., (1995) "Some practical considerations and applications of the National Cancer Institute In Vitro Anticancer Drug Discovery Screen", ibid., 34, 91-109).
(§2) The "50% growth inhibition" parameter (GI50) is the concentration of test drug where: [formula]
(§3) T is the optical density of the test well after 48 hours drug exposure, T0 is the optical density at time zero, and C is the control optical density, PG is the "percent growth". It is a T/C like parameter that can have values from +100 to -100.
(§4) Total Growth Inhibition (TGI) signifies the cytostatic level effect: [formula]
(§5) The GI50, TGI and LC50 values were calculated by interpolation using the tested concentrations that give PG values above and below the response reference values (e.g. 50 for GI50). Dose-response curves are compared for compound 1 and paclitaxel for breast cancer, ovarian cancer, CNS cancer and non-small lung cancer in FIGS. 1-4 respectively.

[1] = system: ovarian cancer cell lines; assay: NCI screen, ovarian cancer cell lines as a group; assay type: cell-based, human; conditions: for GI50: Homo sapiens, read-out: GI50 values, range
breast cancer cell lines = assay: NCI screen, breast cancer cell lines as a group; assay type: cell-based, human; conditions: for GI50: Homo sapiens, 48 h, read-out: GI50 values, range
[2] = system: various cancer cell lines; assay: NCI in vitro human tumor cell line screen, various cancer cell lines; assay type: cell-based; conditions: for IC (TGI): Homo sapiens, 48 h, read-out: TGI values (concentrations), order of magnitude
Experimental: as §1, §2, §3, §4
The LC50 is the lethal dose concentration, "net cell killing" or cytotoxicity parameter: [formula]
as §5

OVCAR-3 = assay: NCI in vitro human tumor cell line screen, ovarian cancer; assay type: cell-based
OVCAR-5 = assay: as above; assay type: cell-based
OVCAR-8 = assay: as above; assay type: cell-based; conditions: OVCAR-8, ovarian cancer, 48 hours
SK-OV-3 = assay: as above; assay type: cell-based; conditions: SK-OV-3, ovarian cancer, 48 hours
MCF-7 = assay: NCI in vitro human tumor cell line screen, breast cancer; assay type: cell-based
HS578T = assay: as above; assay type: cell-based; conditions: Hs-578T
Experimental: as §1, §2, §3, §4, §5

MDA-MB-435 = assay: as above; assay type: cell-based; conditions: 48 h, MDA-MB-435, breast cancer, read-out: TGI (total growth inhibition)
Experimental: as §1, §2, §3, §4, §5

MDA-N = assay: as above; assay type: cell-based
Experimental: as §1, §2, §3, §4, §5

T-47D = assay: as above; assay type: cell-based
A549/ATCC = assay: NCI in vitro human tumor cell line screen, non small lung cancer; assay type: cell-based; conditions: 48 hours
EKVX = assay: as above; assay type: cell-based; conditions: 48 hours
HOP-62 = assay: as above; assay type: cell-based; conditions: HOP-62, non small lung cancer, 48 hours
NCI-H226 = assay: as above; assay type: cell-based; conditions: 48 hours
NCI-H23 = assay: as above; assay type: cell-based
NCI-H322M = assay: as above; assay type: cell-based; conditions: 48 hours
NCI-H522 = assay: as above; assay type: cell-based; conditions: 48 hours
SF-295 = assay: NCI in vitro human tumor cell line screen, CNS cancer; assay type: cell-based
SF-539 = assay: as above; assay type: cell-based; conditions: SF-539, CNS cancer, 48 hours
SNB-19 = assay: as above; assay type: cell-based; conditions: SNB-19, CNS cancer, 48 hours
U251 = assay: as above; assay type: cell-based; conditions: U-251, 48 hours
COLO205 = assay: NCI in vitro human tumor cell line screen, colon cancer; assay type: cell-based
HCC-2998 = assay: as above; assay type: cell-based; conditions: HCC-2998, colon cancer, 48 hours
HCT-116 = assay: as above; assay type: cell-based; conditions: HCT-116, colon cancer, 48 hours
HCT-15 = assay: as above; assay type: cell-based
HT-29 = assay: as above; assay type: cell-based
Experimental: as §1, §2, §3, §4, §5

SW-620 = assay: as above; assay type: cell-based; conditions: SW-620, colon cancer, 48 hours
CCRF-CEM = assay: NCI in vitro human tumor cell line screen, leukemia; assay type: cell-based
HL-60TB = assay: as above; assay type: cell-based
MOLT-2 = assay: as above; assay type: cell-based; conditions: MOLT-2, leukemia, 48 hours
RPMI-8226 = assay: as above; assay type: cell-based; conditions: RPMI-8226, leukemia, 48 hours
786-0 = assay: NCI in vitro human tumor cell line screen, renal cancer; assay type: cell-based
RXF-393 = assay: as above; assay type: cell-based
SN12C = assay: as above; assay type: cell-based
PC-3 = assay: NCI in vitro human tumor cell line screen, prostate cancer; assay type: cell-based
DU-145 = assay: as above; assay type: cell-based
IGROVI = assay: NCI in vitro human tumor cell line screen, ovarian cancer; assay type: cell-based; conditions: vs paclitaxel
ADR-RES = assay: NCI in vitro human tumor cell line screen, breast cancer; assay type: cell-based; conditions: vs paclitaxel
UACC-62 = assay: NCI in vitro human tumor cell line screen, melanoma; assay type: cell-based; conditions: UACC-62, melanoma, vs paclitaxel
CNS cancer = assay: NCI screen, CNS cancer dose response curves; assay type: cell-based, human; conditions: FIG. 3, vs paclitaxel
[3] = system: non-small cell lung cancer; assay: NCI screen, non-small cell lung cancer dose response curves; assay type: cell-based, human; conditions: FIG. 4, vs paclitaxel
[4] = Water solubility as equilibrium concentration by HPLC
Experimental: The water solubility of compound 1 was determined as an equilibrium concentration at room temperature using HPLC measurements.

[5] = 48 h, read-out: TGI (total growth inhibition)

Molecule `CC(=O)O[C@H]1C(=O)[C@@]2(C)[C@H]([C@H](OC(=O)c3ccccc3)[C@]3(O)C[C@H](OC(=O)[C@H](O)[C@@H](NC(=O)c4ccccc4)c4ccccc4)C(C)=C1C3(C)C)[C@]1(OC(C)=O)CO[C@@H]1C[C@@H]2O` [paclitaxel] has a GI50 (SF-268; SF-268, 48 h) of 7.61 nM, a GI50 (SNB-75; SNB-75, 48 h) of 13.6 nM and a GI50 ([1]; 48 h) of 1 to 10 nM. It also gave a GI50 (breast cancer cell lines) of 10 to 100 nM and an IC (TGI) [2] of 10 to 100 nM.

With `CC(=O)OC1C(=O)C2(C)C(O)CC3OCC3(OC(C)=O)C2C(OC(=O)c2ccccc2)C2(O)CC(OC(=O)C(OC(=O)CCC(=O)NCCCC(=O)OC3C(O)C(O)OC(CO)C3O)C(NC(=O)c3ccccc3)c3ccccc3)C(C)=C1C2(C)C` (stereo not drawn) [chackol, (3-glucose) GABA paclitaxel succinate] the GI50 (OVCAR-3; Homo sapiens, OVCAR-3, ovarian cancer, 48 hours) was 0.266 nM, the “times more active than paclitaxel (GI50)” value (OVCAR-3; OVCAR-3, vs paclitaxel) was 18 times and the GI50 (OVCAR-5; Homo sapiens, OVCAR-5, ovarian cancer, 48 hours) was 0.156 nM. For the same molecule, the “times more active than paclitaxel (GI50)” value (OVCAR-5; OVCAR-5, vs paclitaxel) was 32 times, the GI50 (OVCAR-8) was 0.437 nM and the GI50 (SK-OV-3) was 0.502 nM. The GI50 (MCF-7; Homo sapiens, MCF7, MCF-7, breast cancer, 48 hours) was 0.256 nM, the “times more active than paclitaxel (GI50)” value (MCF-7; MCF-7, vs paclitaxel) was 15 times and the IC (TGI) (HS578T; [5]) was 0.592 nM. It also gave a GI50 (HS578T; 48 hours) of 0.18 nM, an IC (TGI) (MDA-MB-435) of 0.215 nM and an IC (TGI) (MDA-N; [5]) of 0.294 nM. For the same molecule, the GI50 (MDA-N; 48 hours) was 0.105 nM, the GI50 (T-47D; Homo sapiens, T47D, breast cancer, 48 hours) was 0.804 nM and the “times more active than paclitaxel (GI50)” value (T-47D; vs paclitaxel) was 14 times. It also gave a GI50 (A549/ATCC) of 0.575 nM, a GI50 (EKVX) of 1.98 nM and a GI50 (HOP-62) of 1.13 nM. The GI50 (NCI-H226) was 0.419 nM, the GI50 (NCI-H23; Homo sapiens, NCI-H23, non small lung cancer, 48 hours) was 0.428 nM and the “times more active than paclitaxel (GI50)” value (NCI-H23; NCI-H23, vs paclitaxel) was 107 times. For the same molecule, the GI50 (NCI-H322M) was 0.593 nM, the GI50 (NCI-H522) was 0.184 nM and the GI50 (SF-268; SF-268, CNS cancer, 48 hours, read-out: GI50) was 0.275 nM. The “times more active than paclitaxel (GI50)” value (SF-268; SF-268, vs paclitaxel) was 28 times, the GI50 (SF-295; Homo sapiens, SF-295, CNS cancer, 48 hours) was 1.44 nM and the “times more active than paclitaxel (GI50)” value (SF-295; SF-295, vs paclitaxel) was 25 times. The GI50 (SF-539) was 0.22 nM, the GI50 (SNB-19) was 0.354 nM and the GI50 (SNB-75; SNB-75, CNS cancer, 48 hours, read-out: GI50) was 0.21 nM. The “times more active than paclitaxel (TGI)” value (SNB-75; SNB-75, CNS cancer, vs paclitaxel) was 67 times, the “times more active than paclitaxel (GI50)” value (SNB-75; SNB-75, vs paclitaxel) was 65 times and the GI50 (U251) was 0.363 nM. The “times more active than paclitaxel (GI50)” value (COLO205; COLO25 (so in the source), vs paclitaxel) was 19 times, the GI50 (COLO205; Homo sapiens, COLO 205, COLO205, colon cancer, 48 hours) was 0.247 nM and the GI50 (HCC-2998) was 0.152 nM. For the same molecule, the GI50 (HCT-116) was 0.228 nM, the “times more active than paclitaxel (GI50)” value (HCT-15; HCT-15, vs paclitaxel) was 7 times and the GI50 (HCT-15; Homo sapiens, HCT-15, colon cancer, 48 hours) was 27.9 nM. The “times more active than paclitaxel (TGI)” value (HT-29; HT-29, colon cancer, vs paclitaxel) was 303 times, the “times more active than paclitaxel (GI50)” value (HT-29; HT-29, vs paclitaxel) was 40 times and the GI50 (HT-29; Homo sapiens, HT-29, colon cancer, 48 hours) was 0.127 nM. The GI50 (SW-620) was 0.348 nM, the GI50 (CCRF-CEM; Homo sapiens, leukemia, 48 hours) was 0.313 nM and the “times more active than paclitaxel (GI50)” value (CCRF-CEM; vs paclitaxel) was 8 times. For the same molecule, the “times more active than paclitaxel (GI50)” value (HL-60TB; HL-60 (TB), vs paclitaxel) was 8 times, the GI50 (HL-60TB; Homo sapiens, HL-60TB, leukemia, 48 hours) was 0.249 nM and the GI50 (MOLT-2) was 0.487 nM. For the same molecule, the GI50 (RPMI-8226) was 0.266 nM, the “times more active than paclitaxel (GI50)” value (786-0; 786-0, vs paclitaxel) was 11 times and the GI50 (786-0; Homo sapiens, 786-0, renal cancer, 48 hours) was 1.33 nM. For the same molecule, the GI50 (RXF-393; Homo sapiens, RXF-393, renal cancer, 48 hours) was 0.496 nM, the “times more active than paclitaxel (GI50)” value (RXF-393; RXF-393, vs paclitaxel) was 23 times and the GI50 (SN12C; Homo sapiens, renal cancer, 48 hours) was 0.481 nM. For the same molecule, the “times more active than paclitaxel (GI50)” value (SN12C; vs paclitaxel) was 16 times, the GI50 (PC-3; Homo sapiens, PC-3, prostate cancer, 48 hours) was 0.276 nM and the “times more active than paclitaxel (GI50)” value (PC-3; PC-3, vs paclitaxel) was 10 times. The “times more active than paclitaxel (GI50)” value (DU-145; DU-145, vs paclitaxel) was 12 times, the GI50 (DU-145; Homo sapiens, DU-145, prostate cancer, 48 hours) was 0.401 nM and the “times more active than paclitaxel (GI50)” value (IGROVI) was 45 times. For the same molecule, the “times more active than paclitaxel (GI50)” value (ADR-RES) was 23 times, the “times more active than paclitaxel (GI50)” value (UACC-62) was 1490 times and the GI50 ([1]; ovarian lines OVCAR-3, OVCAR-5 and IGROVI) was about 0.1 nM. For the same molecule, the “dose response curve compared with paclitaxel” value ([1]; ovarian cancer, FIG. 2, vs paclitaxel) was “extend one log unit lower than those for paclitaxel”, the GI50 (breast cancer cell lines; breast lines MCF-7, ADR-RES and T-47D) was 0.1 to 10 nM and the “dose response curve compared with paclitaxel” value (breast cancer cell lines; breast cancer, FIG. 1, vs paclitaxel) was “extend one log unit lower than those for paclitaxel”. The “dose response curve compared with paclitaxel” value (CNS cancer) was “extend one log unit lower than those for paclitaxel”, the “dose response curve compared with paclitaxel” value [3] was “extend one log unit lower than those for paclitaxel” and the IC (TGI) ([2]; on the order of, various cancer cell lines) was about 0.1 nM. For the same molecule, the “dose response curves compared with paclitaxel” value ([2]; breast, ovarian, CNS, non-small lung cancer, FIGS. 1-4) was “extend one log unit lower”, the “growth inhibition (GI50) compared with paclitaxel” value ([2]; in general, vs paclitaxel) was “active at a much lower concentration as compared to paclitaxel” and the “total growth inhibition compared with paclitaxel” value ([2]; various cancer cell lines, vs paclitaxel) was “more active than paclitaxel”. It also gave a solubility [4] of 240 µg/mL.
